Read-outs that look alike come from different tables or passages of the source.
Target: mu-opioid receptor (MOR) (Homo sapiens (Human), UniProt P35372)
Experiment: cell-based
Conditions: combined with a MOR antagonist; for AUC: AUC of [Ca2+]i fluorescence, CHO-K1/MOR/Gα15 cells
Protocol: In an exemplary in vitro screening method for identifying antagonist-to-agonist allosteric modifiers of a MOR, cells that express a MOR are treated with a test compound and a MOR antagonist in a cellular calcium fluorescent assay and fluorescence intensity is then measured to determine whether the MOR is activated. A test compound is identified as an antagonist-to-agonist allosteric modifier of the MOR if the MOR is activated.
EC50 herein refers to the concentration of a compound that induces a response halfway between the baseline and the maximum after a specified exposure time. AUC refers to the area under the response curve, an indication of the compound's capability of activating a MOR when combined with a MOR antagonist.
Human embryonic kidney 293 (HEK-293) cells constitutively expressing MOR (HEK-MOR) and DOR (HEK-DOR) (kindly provided by Dr. Ping-Yee Law, University of Minnesota, USA) were cultured in high-glucose Dulbecco's modified Eagle's medium (DMEM, GIBCO) supplemented with 400 μg/mL G418 (Sigma), 2 mM L-glutamine and P/S/F (100 units/mL penicillin, 100 μg/mL streptomycin, 10% fetal bovine serum). Chinese hamster ovary (CHO)-K1 cells, stably expressing hMOR and Gα15 (CHO-K1/MOR/Gα15), were cultured in F12 medium (GIBCO) supplemented with 10 μg/mL Hygromycin B (Invivogen), 20 μg/mL Zeocin (Invivogen) P/S/F (100 units/mL penicillin, 100 μg/mL streptomycin, 10% fetal bovine serum). The cultures were incubated at 37° C. in a humidified 5% CO2 incubator.
One day before the assay, CORNING® black with clear flat bottom 96-well assay plates were coated with a 0.1 mg/mL Poly-L-Lysine solution. CHO-K1/MOR/Gα15 cells were suspended in the F12 medium and plated at a density of ˜8×10^4 cells/well in 200 μL medium. Cells were incubated in a humidified atmosphere of 10% CO2 at 37° C. overnight so as to reach an 80-90% confluent cell monolayer before assay. At the day of assay, 150 μL medium/well was removed from plate. To each well, 50 μL FLIPR® calcium assay reagent dissolved in 1× assay buffer (HBSS: KCl 5 mM, KH2PO4 0.3 mM, NaCl 138 mM, NaHCO3 4 mM, Na2HPO4 0.3 mM, d-glucose 5.6 mM, with additional 20 mM HEPES and 13 mM CaCl2, pH 7.4), with 2.5 mM probenecid was added and the plate was incubated at 37° C. for 1 h. Compounds and other reagents were dissolved in the assay buffer. Using a FlexStationIII (Molecular Devices Corp.), the [Ca^2+]i fluorescence increases after robotic injections of compounds or other reagents were monitored every 1.52 s interval with excitation wavelength at 485 nm and with emission wavelength at 525 nm. The [Ca^2+]i fluorescence was measured up to 90 s after agonist injection.
A CHO-K1 cell line, expressing a MOR and Gα15 (GenScript), was used to set up a sensitive high-throughput screen (HTS) system. In a FLIPR® calcium assay using CHO-K1/MOR/Gα15 cells, activation of MOR elicits an intracellular calcium release leading to an increase in the relative fluorescence units (FRU). […] The HTS was performed in the absence or presence of an opioid antagonist, naloxone (25 nM), to identify antagonist to agonist allosteric modifiers (AAM).
A CHO-K1 cell line, expressing a MOR and Gα15 (GenScript), was used to set up a sensitive assay system for detecting μ-opioid receptor activation. […] The assay was performed in the presence of an opioid antagonist, i.e., naloxone (25 nM), naltrexone (20 nM), samidorphan (10 nM), naloxonazine dihydrochloride (20 nM), β-funaltrexamine hydrochloride (20 nM), cyprodime hydrochloride (500 nM), or nalmefene (20 nM), in combination with compound 58, an antagonist to agonist allosteric modifier (AAM), to identify activation of the μ-opioid receptor.

mu-opioid receptor (MOR), sequence (P35372 whole entry): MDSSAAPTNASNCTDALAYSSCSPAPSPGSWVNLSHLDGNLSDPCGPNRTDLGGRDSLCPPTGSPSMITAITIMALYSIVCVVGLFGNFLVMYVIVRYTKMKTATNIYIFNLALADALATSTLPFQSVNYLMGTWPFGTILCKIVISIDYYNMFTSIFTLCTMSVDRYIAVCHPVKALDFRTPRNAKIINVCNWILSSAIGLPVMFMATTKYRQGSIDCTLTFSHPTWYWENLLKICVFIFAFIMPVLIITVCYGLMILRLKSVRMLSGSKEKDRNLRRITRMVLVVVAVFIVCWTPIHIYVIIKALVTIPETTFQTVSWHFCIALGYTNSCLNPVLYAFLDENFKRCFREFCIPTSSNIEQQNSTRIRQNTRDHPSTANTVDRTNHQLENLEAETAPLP

Row | Compound | AUC | FLIPR Ca^2+ AUC | EC50 (read-out: FLIPR Ca^2+ EC50) | EC50 (EC50, CHO-K1/MOR/Gα15 cells)
1 | Cc1cc(-c2ccco2)ccc1N1C(=O)CSC1c1ccc(F)cc1 (stereo not drawn) [Example 224] | more than 5000 | 7384 | 11.7 µM | –
2 | Cc1cc(C(=O)NS(=O)(=O)c2ccc(OC(F)(F)F)cc2)ccc1N1C(=O)CSC1c1ccc(F)cc1 (stereo not drawn) [Example 189] | – | 9544 | 1.1 µM | –
3 | Cc1ccc(Cl)cc1N1C(=O)CSC1c1ccc(F)cc1 (stereo not drawn) [Example 147] | more than 5000 | 11516 | 3.2 µM | < 10 µM
4 | Cc1cc(C(=O)NS(=O)(=O)c2ccc(C#N)cc2)ccc1N1C(=O)CSC1c1ccc(F)cc1 (stereo not drawn) [Example 187] | – | 12927 | 3.3 µM | –
5 | Cc1cc(C(=O)OCC2CCCO2)ccc1N1C(=O)CSC1c1ccc(F)cc1 (stereo not drawn) [Example 275] | – | 11236 | 26.9 µM | –
6 | Cc1cc(C(=O)N2CCCC(O)C2)ccc1N1C(=O)CSC1c1ccc(F)cc1 (stereo not drawn) [Example 353] | – | 11991 | 7.3 µM | –
7 | CCc1ccc(S(=O)(=O)NC(=O)c2ccc(N3C(=O)CSC3c3ccc(F)cc3)c(C)c2)cc1 (stereo not drawn) [Example 186] | – | 18048 | 0.6 µM | –
8 | Cc1cc(C(=O)OCC2COC(C)(C)O2)ccc1N1C(=O)CSC1c1ccc(F)cc1 (stereo not drawn) [Example 276] | – | 15090 | 6.3 µM | < 10 µM
9 | Cc1cc(C)cc(CS(=O)(=O)NC(=O)c2ccc(N3C(=O)CSC3c3ccc(F)cc3)c(C)c2)c1 (stereo not drawn) [Example 179] | more than 5000 | 14442 | 1.1 µM | < 10 µM
10 | Cc1cc(C(=O)N2CCC(N)C2)ccc1N1C(=O)CSC1c1ccc(F)cc1 (stereo not drawn) [Example 351] | – | 11205 | 10 µM | –
11 | Cc1c(N2C(=O)CSC2c2ccc(F)cc2)c(=O)n(-c2ccccc2)n1C (stereo not drawn) [Example 411] | more than 5000 | 8099 | 20 µM | –
12 | CC(=O)c1ccc(C)c(N2C(=O)CSC2c2ccc(F)cc2)c1 (stereo not drawn) [Example 90] | – | – | – | < 10 µM
13 | COCCS(=O)(=O)NC(=O)c1ccc(N2C(=O)CSC2c2ccc(F)cc2)c(C)c1 (stereo not drawn) [Example 593, 4-[2-(4-Fluorophenyl)-4-oxo-1,3-thiazolidin-3-yl]-N-[(2-methoxyethyl)sulfonyl]-3-methylbenzamide] | more than 5000 | 11543 | 2.21 µM | < 10 µM
14 | CCOC(=O)c1ccc(S(=O)(=O)NC(=O)c2ccc(N3C(=O)CSC3c3ccc(F)cc3)c(C)c2)cc1 (stereo not drawn) [Example 190] | – | 16512 | 2.4 µM | –
15 | Cc1cc(CC(=O)O)ccc1N1C(=O)CSC1c1ccc(F)cc1 (stereo not drawn) [Example 101] | – | – | – | < 10 µM
16 | Cc1cc(C(=O)N2CC[C@@H](N(C)C)C2)ccc1N1C(=O)CSC1c1ccc(F)cc1 (stereo partly drawn) [Example 349] | – | 11923 | 10 µM | –
17 | CCCCS(=O)(=O)NC(=O)c1ccc(N2C(=O)CSC2c2ccc(F)cc2)c(C)c1 (stereo not drawn) [Example 163] | more than 5000 | 11389 | 1.2 µM | < 10 µM
18 | Cc1nnc(-c2ccc(N3C(=O)CSC3c3ccc(F)cc3)c(C)c2)o1 (stereo not drawn) [Example 227] | – | 15410 | 5.5 µM | –
19 | COc1cccc(NC(=O)c2ccc(N3C(=O)CSC3c3ccc(F)cc3)c(C)c2)c1 (stereo not drawn) [Example 368] | more than 5000 | 8915 | 6.7 µM | < 10 µM
20 | Cc1cc(C(=O)NCc2ccc(Cl)cc2F)ccc1N1C(=O)CSC1c1ccc(F)cc1 (stereo not drawn) [Example 375] | – | 4172 | 3.8 µM | –
